Source: US20120041211A1, “NOVEL PROCESS FOR PREPARING CARBOXY-CONTAINING PYRAZOLEAMIDO COMPOUNDS 597” (priority 2009, published 2012)

Test: Stability of solvate form on exposure to the lab atmosphere
Assay type: physicochemical
Details: 21° C., 30% relative humidity, material from wet suspension
Procedure: 20 mg of Form 4 was added to a small vessel. 0.711 ml of Form 4 saturated MeOH solution was added to the vessel making a suspension. The suspension was stirred for 7 days at 25° C. Thereafter the suspension was stirred at 21° C. for 1½ months. The wet suspension was analysed by XRPD (Cu-source) giving substantially the following d-values. […] For diffractogram see FIG. 8.
20 mg of Form 4 was added to a small vessel. 0.711 ml MTBE was added to the vessel making a suspension. The suspension was stirred for 7 days at 25° C. The wet suspension was analysed by XRPD (Cu-source) giving substantially the following d-values.

SMILES	stability / form transformation on exposure to the lab atmosphere
CC(C)(C)c1c(C(=O)NC2C3CC4CC(C3)CC2C4)cnn1-c1ccc(C(=O)O)cc1 (centres unmarked) [MeOH Solvate, 4-[4-(2-adamantylcarbamoyl)-5-tert-butyl-pyrazol-1-yl]benzoic acid]	rapidly transforms to Form 3
CC(C)(C)c1c(C(=O)NC2C3CC4CC(C3)CC2C4)cnn1-c1ccc(C(=O)O)cc1 (centres unmarked) [MTBE Solvate, 4-[4-(2-adamantylcarbamoyl)-5-tert-butyl-pyrazol-1-yl]benzoic acid]	transforms to Hydrate
